Values of other authors in patent US20110009348A1, “CARBOHYDRATE GEL” (priority 2008, published 2011).

Tested on: male cyclists
Conditions: comparison values given in text, source not stated

For `O=C(CO)[C@@H](O)[C@H](O)[C@H](O)CO` [fructose], the “peak oxidation achieved with a single carbohydrate source” value is given as about 0.4 g/min.
